Results as given in the NIST ThermoML archive (doi:10.1016/j.fluid.2015.02.018).
Numbers after ± are expanded uncertainties.

What was measured:
[1] = DTA; for Normal melting temperature: Crystal
[2] = Molar enthalpy of transition or fusion; settings: Crystal; DSC

Normal melting temperature [1] [°C]	Glass transition temperature ([1]; Glass) [°C]	Molar enthalpy of transition or fusion [2] [kcal/mol]	Compound
93.7 ± 0.4	18.7 ± 0.4	10.8 ± 0.239	OCCN1CCN(CCCN2c3ccccc3Sc3ccc(Cl)cc32)CC1 [perphenazine]
269.1 ± 0.4	–	6.19 ± 0.143	Cn1c(=O)c2[nH]cnc2n(C)c1=O.Cn1c(=O)c2[nH]cnc2n(C)c1=O.NCCN [aminophylline]
193.2 ± 0.4	–	18.2 ± 0.382	CN1[C@@H](CC(=O)c2ccccc2)CCC[C@H]1C[C@H](O)c1ccccc1.Cl [(-)-lobeline hydrochloride]
160.5 ± 0.4	–	18 ± 0.359	COc1ccc2c(c1)c(CC(=O)O)c(C)n2C(=O)c1ccc(Cl)cc1
